Measured values: patent US12077503B2, “Substituted cyclic amides and their use as herbicides” (FMC CORPORATION, priority 2015, dated 2024)

What was measured:
Format in all cases: in vivo
[1] = system: barnyardgrass (Echinochloa crus-galli); assay: Test A postemergence
Method in brief: (§1)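 Seeded soil received test chemicals as a preemergence directed spray, and seedlings at one to two leaves, 2–10 cm tall, received them postemergence, in a non-phytotoxic, surfactant-containing solvent mixture. Pots were held in a greenhouse for approximately 10 d, then rated for injury from 0, no effect, to 100, complete control.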

[2] = system: Galium (catchweed bedstraw, Galium aparine); assay: Test A postemergence
Method in brief: as §1

[3] = system: ryegrass, Italian (Italian ryegrass, Lolium multiflorum); assay: Test A postemergence
Method in brief: as §1

[4] = system: ragweed (common ragweed, Ambrosia elatior); assay: Test A postemergence
Method in brief: as §1

[5] = system: giant foxtail (Setaria faberii); assay: Test A postemergence
Method in brief: as §1

[6] = system: pigweed (Amaranthus retroflexus); assay: Test A postemergence
Method in brief: as §1

[7] = system: wheat (Triticum aestivum); assay: Test A postemergence
Method in brief: as §1

[8] = system: Kochia (Kochia scoparia); assay: Test A postemergence
Method in brief: as §1

[9] = system: blackgrass (Alopecurus myosuroides); assay: Test A postemergence
Method in brief: as §1

[10] = system: corn (Zea mays); assay: Test A postemergence
Method in brief: as §1

[11] = system: barnyardgrass (Echinochloa crus-galli); assay: Test A preemergence
Method in brief: as §1

[12] = system: ryegrass, Italian (Italian ryegrass, Lolium multiflorum); assay: Test A preemergence
Method in brief: as §1

[13] = system: ragweed (common ragweed, Ambrosia elatior); assay: Test A preemergence
Method in brief: as §1

[14] = system: giant foxtail (Setaria faberii); assay: Test A preemergence
Method in brief: as §1

[15] = system: pigweed (Amaranthus retroflexus); assay: Test A preemergence
[16] = system: Kochia (Kochia scoparia); assay: Test A preemergence
Method in brief: as §1

[17] = system: barnyardgrass (Echinochloa crus-galli); assay: Test B flooded paddy test; details: Flood, 250 g ai/ha; for Plant response rating, Barnyardgrass: 0 to 100 scale where 0 is no effect and 100 is complete control, 13 to 15 d
Method in brief: (§2)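 2-leaf plants; pots flooded 3 cm over soil; cpd added to paddy water; depth held; greenhouse 13–15 d; visual rating vs controls, 0 = no effect, 100 = complete control.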

[18] = system: ducksalad (Heteranthera limosa); assay: Test B flooded paddy test; details: Flood, 250 g ai/ha; for Plant response rating, Ducksalad: 0 to 100 scale where 0 is no effect and 100 is complete control, 13 to 15 d
Method in brief: as §2

[19] = system: sedge, umbrella (small-flower umbrella sedge, Cyperus difformis); assay: Test B flooded paddy test; details: Flood, 250 g ai/ha; for Sedge, Umbrella plant response rating: scale of 0 to 100 where 0 is no effect and 100 is complete control; for Plant response rating, Sedge, Umbrella: 0 to 100 scale where 0 is no effect and 100 is complete control, 13 to 15 d
Method in brief: as §2

[20] = system: rice (Oryra sativa); assay: Test B flooded paddy test; details: Flood, 250 g ai/ha; for Plant response rating, Rice: 0 to 100 scale where 0 is no effect and 100 is complete control, 13 to 15 d
Method in brief: as §2

[21] = 125 g ai/ha, postemergence, visual rating after approx. 10 d, 0 to 100 scale (0 no effect, 100 complete control)
[22] = 500 g ai/ha, postemergence, visual injury, 0 to 100 scale (0 no effect, 100 complete control), approx. 10 d
[23] = 125 g ai/ha, postemergence, visual injury after approximately 10 d, 0 to 100 scale (0 no effect, 100 complete control)
[24] = 125 g ai/ha, Preemergence, visual injury after approximately 10 d, 0 to 100 scale where 0 is no effect and 100 is complete control
[25] = 500 g ai/ha, preemergence, 0 to 100 scale, 0 = no effect, 100 = complete control
[26] = 125 g ai/ha, preemergence, visual rating after approx. 10 d, 0 to 100 scale where 0 is no effect and 100 is complete control
[27] = 125 g ai/ha, postemergence, visual injury rating after approximately 10 d
[28] = 125 g ai/ha, preemergence, 0 to 100 scale where 0 is no effect and 100 is complete control
[29] = 500 g ai/ha, Preemergence, visual injury vs untreated controls after approximately 10 d
[30] = scale of 0 to 100 where 0 is no effect and 100 is complete control
[31] = 500 g ai/ha, postemergence, 0 to 100 scale, 0 no effect, 100 complete control
[32] = Postemergence, 125 g ai/ha, visual injury, 0 to 100 scale (0 no effect, 100 complete control), approx. 10 d
[33] = 125 g ai/ha, preemergence, 0 to 100 scale (0 no effect, 100 complete control)
[34] = Preemergence, 500 g ai/ha, 0 is no effect, 100 is complete control
[35] = 125 g ai/ha, postemergence, visual injury rating on 0 to 100 scale (0 no effect, 100 complete control), approx. 10 d
[36] = Preemergence, 500 g ai/ha, visual injury approx. 10 d

CN1CC(c2ccc(C(C)(F)F)cc2)C(C(=O)Nc2ccc(F)cc2F)C1=O (centres unmarked) [Compound 693]
Plant response rating, Barnyardgrass [1, 21]: 70
Plant response rating, Barnyardgrass [1, 22]: 80
Plant response rating, Galium [2, 23]: 60
Plant response rating, Galium [2, 22]: 70
Plant response rating, Ryegrass, Italian [3, 23]: 50
Plant response rating, Ryegrass, Italian [3, 22]: 70
Plant response rating, Ragweed [4, 23]: 0
Plant response rating, Ragweed [4, 22]: 10
Plant response rating, Foxtail, Giant [5, 23]: 80
Plant response rating, Foxtail, Giant [5, 22]: 80
Plant response rating, Pigweed [6, 23]: 10
Plant response rating, Pigweed [6, 22]: 70
Plant response rating, Wheat [7, 23]: 0
Plant response rating, Wheat [7, 22]: 50
Plant response rating, Kochia [8, 23]: 60
Plant response rating, Kochia [8, 22]: 70
Plant response rating, Blackgrass [9, 21]: 10
Plant response rating, Blackgrass [9, 22]: 50
Plant response rating, Corn [10, 23]: 40
Plant response rating, Corn [10, 22]: 70
Plant response rating, Barnyardgrass [11, 24]: 80
Plant response rating, Barnyardgrass [11, 25]: 90
Plant response rating, Ryegrass, Italian [12, 26]: 60
Plant response rating, Ryegrass, Italian [12, 25]: 70
Plant response rating, Ragweed [13, 26]: 50
Plant response rating, Ragweed [13, 25]: 60
Plant response rating, Foxtail, Giant [14, 24]: 90
Plant response rating, Foxtail, Giant [14, 25]: 90
Plant response rating, Pigweed [15, 26]: 70
Plant response rating, Pigweed [15, 25]: 80
Plant response rating, Kochia [16, 24]: 80
Plant response rating, Kochia [16, 25]: 90
Plant response rating, Barnyardgrass [17]: 75
Plant response rating, Ducksalad [18]: 70
Sedge, Umbrella plant response rating [19]: 0
Plant response rating, Rice [20]: 20

O=C1NC[C@H](c2cccc(C(F)(F)F)c2)[C@H]1C(=O)Nc1ccccc1[N+](=O)[O-] [Compound 825]
Barnyardgrass plant response rating (0 to 100 scale, 0 no effect, 100 complete control) [1, 27]: 80
Galium plant response rating (0 to 100 scale, 0 no effect, 100 complete control) [2, 27]: 30
Ryegrass, Italian plant response rating (0 to 100 scale, 0 no effect, 100 complete control) [3, 27]: 20
Ragweed plant response rating (0 to 100 scale, 0 no effect, 100 complete control) [4, 27]: 20
Foxtail, Giant plant response rating (0 to 100 scale, 0 no effect, 100 complete control) [5, 27]: 90
Pigweed plant response rating (0 to 100 scale, 0 no effect, 100 complete control) [6, 27]: 0
Wheat plant response rating (0 to 100 scale, 0 no effect, 100 complete control) [7, 27]: 40
Kochia plant response rating (0 to 100 scale, 0 no effect, 100 complete control) [8, 27]: 0
Blackgrass plant response rating (0 to 100 scale, 0 no effect, 100 complete control) [9, 27]: 40
Corn plant response rating (0 to 100 scale, 0 no effect, 100 complete control) [10, 27]: 20
Barnyardgrass plant response rating [11, 28]: 70
Barnyardgrass plant response rating (0 to 100 scale where 0 is no effect and 100 is complete control) [11, 29]: 90
Ryegrass, Italian plant response rating [12, 28]: 20
Ryegrass, Italian plant response rating (0 to 100 scale where 0 is no effect and 100 is complete control) [12, 29]: 40
Ragweed plant response rating [13, 28]: 20
Ragweed plant response rating (0 to 100 scale where 0 is no effect and 100 is complete control) [13, 29]: 20
Foxtail, Giant plant response rating [14, 28]: 90
Foxtail, Giant plant response rating (0 to 100 scale where 0 is no effect and 100 is complete control) [14, 29]: 90
Pigweed plant response rating [15, 28]: 0
Pigweed plant response rating (0 to 100 scale where 0 is no effect and 100 is complete control) [15, 29]: 30
Kochia plant response rating [16, 28]: 20
Kochia plant response rating (0 to 100 scale where 0 is no effect and 100 is complete control) [16, 29]: 60
Barnyardgrass plant response rating [17, 30]: 0
Ducksalad plant response rating [18, 30]: 80
Sedge, Umbrella plant response rating [19]: 0
Rice plant response rating [20, 30]: 25

O=C1NCC(c2cccc(F)c2)C1C(=O)Nc1cccc(F)c1F (racemic) [Compound 375]
Plant response rating, Barnyardgrass [1, 31]: 90
Plant response rating, Barnyardgrass [1, 32]: 90
Plant response rating, Galium [2, 31]: 50
Plant response rating, Galium [2, 32]: 40
Plant response rating, Ryegrass, Italian [3, 31]: 20
Plant response rating, Ryegrass, Italian [3, 32]: 0
Plant response rating, Ragweed [4, 31]: 20
Plant response rating, Ragweed [4, 32]: 0
Plant response rating, Foxtail, Giant [5, 31]: 90
Plant response rating, Foxtail, Giant [5, 32]: 90
Plant response rating, Pigweed [6, 31]: 50
Plant response rating, Pigweed [6, 32]: 20
Plant response rating, Wheat [7, 31]: 80
Plant response rating, Wheat [7, 32]: 30
Plant response rating, Kochia [8, 31]: 60
Plant response rating, Kochia [8, 32]: 30
Plant response rating, Blackgrass [9, 31]: 70
Plant response rating, Blackgrass [9, 32]: 50
Plant response rating, Corn [10, 31]: 80
Plant response rating, Corn [10, 32]: 30
Plant response rating, Barnyardgrass [11, 33]: 90
Barnyardgrass plant response rating (0 to 100 scale) [11, 34]: 90
Plant response rating, Ryegrass, Italian [12, 33]: 20
Ryegrass, Italian plant response rating (0 to 100 scale) [12, 34]: 50
Plant response rating, Ragweed [13, 33]: 0
Ragweed plant response rating (0 to 100 scale) [13, 34]: 70
Plant response rating, Foxtail, Giant [14, 33]: 90
Foxtail, Giant plant response rating (0 to 100 scale) [14, 34]: 90
Plant response rating, Pigweed [15, 33]: 20
Pigweed plant response rating (0 to 100 scale) [15, 34]: 70
Plant response rating, Kochia [16, 33]: 20
Kochia plant response rating (0 to 100 scale) [16, 34]: 70
Plant response rating, Barnyardgrass [17]: 70
Plant response rating, Ducksalad [18]: 100
Plant response rating, Sedge, Umbrella [19]: 0
Plant response rating, Rice [20]: 30

CN1CC(c2ccc(Cl)cc2)C(C(=O)Nc2cccc(F)c2F)C1=O (centres unmarked) [Compound 434]
Barnyardgrass plant response rating [1, 35]: 90
Plant response rating, Barnyardgrass [1, 31]: 90
Galium plant response rating [2, 35]: 60
Plant response rating, Galium [2, 31]: 60
Ryegrass, Italian plant response rating [3, 35]: 0
Plant response rating, Ryegrass, Italian [3, 31]: 50
Ragweed plant response rating [4, 35]: 20
Plant response rating, Ragweed [4, 31]: 20
Foxtail, Giant plant response rating [5, 35]: 90
Plant response rating, Foxtail, Giant [5, 31]: 90
Pigweed plant response rating [6, 35]: 60
Plant response rating, Pigweed [6, 31]: 70
Wheat plant response rating [7, 35]: 20
Plant response rating, Wheat [7, 31]: 70
Kochia plant response rating [8, 35]: 70
Plant response rating, Kochia [8, 31]: 70
Blackgrass plant response rating [9, 35]: 50
Plant response rating, Blackgrass [9, 31]: 50
Corn plant response rating [10, 35]: 0
Plant response rating, Corn [10, 31]: 70
Plant response rating, Barnyardgrass [11, 33]: 90
Barnyardgrass plant response rating (0 to 100 scale, 0 is no effect, 100 is complete control) [11, 36]: 90
Plant response rating, Ryegrass, Italian [12, 33]: 60
Ryegrass, Italian plant response rating (0 to 100 scale, 0 is no effect, 100 is complete control) [12, 36]: 90
Plant response rating, Ragweed [13, 33]: 50
Ragweed plant response rating (0 to 100 scale, 0 is no effect, 100 is complete control) [13, 36]: 60
Plant response rating, Foxtail, Giant [14, 33]: 90
Foxtail, Giant plant response rating (0 to 100 scale, 0 is no effect, 100 is complete control) [14, 36]: 100
Plant response rating, Pigweed [15, 33]: 80
Pigweed plant response rating (0 to 100 scale, 0 is no effect, 100 is complete control) [15, 36]: 90
Plant response rating, Kochia [16, 33]: 70
Kochia plant response rating (0 to 100 scale, 0 is no effect, 100 is complete control) [16, 36]: 80
Plant response rating, Barnyardgrass [17]: 70
Plant response rating, Ducksalad [18]: 100
Plant response rating, Sedge, Umbrella [19]: 0
Plant response rating, Rice [20]: 0
